The experiment relates to MCF7/siMCJ cells. As to the kind of experiment: Intracellular ATP levels in MCF7/siMCJ cells after incubation with rotenone. The class given is cell-based, human. Conditions: rotenone 10 μM, 4 h, versus medium (FIG. 3B). As to the method:
CD8 T cells and CD4 T cells were purified from spleen and lymph nodes by negative selection as previously described (Auphan et al., 1998 J Immunol 160, 4810-4821; Conze et al., 2002 J Exp Med 195, 811-823), and by positive selection using the MACS system as recommended by the manufacturer (Miltenyi Biotec, Cambridge, Mass.). Purified T cells were stimulated with plate-bound anti-CD3 (2C11) (5 μg/ml) and soluble anti-CD28 (1 μg/ml) (BD Biosciences, Sparks, Md.) mAbs. Proliferation assays were performed using purified CD8 T cells (10^5 cells/well) activated with anti-CD3 and anti-CD28 and labeled with [^3H]-thymidine as previously described (Conze et al., 2002 J Exp Med 195, 811-823). MCF7, MCF7/siMCJ, and 293T cell lines were maintained as previously described (Hatle et al., 2007 Mol Cell Biol 27, 2952-2966). Rotenone (used at 10 μM) was purchased from Sigma Aldrich (St. Louis, Mo.). Transfection of 293T cells by calcium phosphate was performed as previously described (Hatle et al., 2007 Mol Cell Biol 27, 2952-2966).
The levels of intracellular ATP were determined using […] cells (CD8 T cells, MCF7 cells, 293T cells) per sample and the ATPlite® Luminescence ATP Detection Assay System (PerkinElmer®, Waltham, Mass.) following the recommendations from the manufacturer and a TD-20/20 luminometer (Turner Biosystems, Promega®, Madison, Wis.). […]

As to `C=C(C)[C@H]1Cc2c(ccc3c2O[C@@H]2COc4cc(OC)c(OC)cc4[C@@H]2C3=O)O1` [rotenone, Rotenone], the “levels of ATP” value was “abrogated the levels of ATP”.

The values above are taken from patent US11752193B2, “Administering methylation-controlled J protein (MCJ) SIRNA to a kidney cell” (University of Vermont and State Agricultural College, priority 2012, dated 2023).
